According to patent US20260306632A1, “NANOPARTICLES FOR PHOTOIMMUNE THERAPY COMPRISING PHOTOSENSITIZER AND ADJUVANT, AND USAGE THEREOF” (KOREA INSTITUTE OF SCIENCE AND TECHNOLOGY, priority 2022, published 2026):
Where two headings read alike, the source gives them in different places.

Assay: Solubility of free imiquimod and imiquimod-oleic acid complex (ImO) in water
Type: physicochemical
Conditions: for solubility: highest/lowest concentration examined
Experimental: Nanoparticles (ImiMB) were synthesized using a methylene blue-oleic acid complex (MBO) and Pluronic F-127 with imiquimod in a free imiquimod state without modifying imiquimod with oleic acid. […] Subsequently, 1 ml of distilled water (DW) was used instead of ImO complex solution in the rehydration step of the thin film (FIG. 2).
Therefore, in the present invention, imiquimod was modified with an organic acid to form a cationic adjuvant-organic acid complex for solubility improvement and high-content loading, and then nanoparticles were prepared using the cationic adjuvant-organic acid complex.

Row | Compound | solubility in water (in words) | solubility (read-out: solubility) | solubility
1 | CC(C)Cn1cnc2c(N)nc3ccccc3c21 [free imiquimod, imiquimod] | not soluble in water | < 100 µg/mL | 
2 | imiquimod-oleic acid complex | particle formation occurred well even at a high concentration of 5.0 mg/ml, maintaining a transparent solution form |  | ≥ 5000 µg/mL
